Source: patent US20130331427A1, “METHODS OF STIMULATING CELLULAR GROWTH, SYNAPTIC, REMODELING AND CONSOLIDATION OF LONG-TERM MEMORY” (Blanchette Rockefeller Neuroscience Institute, priority 2007, published 2013)
“Also recorded” adds a separate entry of the source.

Legend:
PKCα = target: T1, PKCα (Rattus norvegicus, UniProt P05696); type: cell-based
T1 construct: from tissue; host or cells: acute hippocampal slices

ELAV = test: acute hippocampal slices, nuclear export of ELAV; type: cell-based; settings: 120-min incubation
calexcitin = calexcitin immunostaining in Hermissenda B-photoreceptors; type: in vivo
Description: Following experimental treatments and testing, animals were rapidly decapitated, the central nervous systems (CNS) removed and then fixed in 4% para-formaldehyde in 20 mM Tris-buffered (pH 8) natural seawater (NSW; 0.2 μm micropore-filtered). The CNSs were then embedded in polyester wax (20), sectioned (6 μm) and immunostained using a biotinylated secondary antibody coupled to avidin-bound microperoxidase (ABC method, Vector), Aminoethylcarbazole (AEC) was used as the chromogen. The primary polyclonal antibody (designated 25U2) was raised in rabbits from the full length calexcitin protein extracted from squid optic lobes. Gray-scale intensity measures were done from digital photomicrographs on circumscribed cytoplasmic areas of the B-photoreceptors minus the same background area (non-staining neuropile).
Micrographs (A, B) depict representative tissue sections from Hermissenda eyes that were immunolabeled with the calexcitin polyclonal antibody, 25U2. […] Differences in staining intensities were measured and recorded as gray-scale intensities (0-256; B-cell cytoplasm minus tissue background).

dendritic spines = dendritic spines of rats trained in a spatial maze task; type: in vivo, rat
Source text: On retention day 2, confocal microscopy and […] were used to study filopodia and dendritic spines: mushroom, thin and stubby spines (Panel A).

PKCδ = target: T2, PKCδ (Rattus norvegicus, UniProt P09215); test: acute hippocampal slices, PKCδ activation; type: cell-based
T2 construct: from tissue; host or cells: hippocampal slices
T2 sequence (P09215 whole entry): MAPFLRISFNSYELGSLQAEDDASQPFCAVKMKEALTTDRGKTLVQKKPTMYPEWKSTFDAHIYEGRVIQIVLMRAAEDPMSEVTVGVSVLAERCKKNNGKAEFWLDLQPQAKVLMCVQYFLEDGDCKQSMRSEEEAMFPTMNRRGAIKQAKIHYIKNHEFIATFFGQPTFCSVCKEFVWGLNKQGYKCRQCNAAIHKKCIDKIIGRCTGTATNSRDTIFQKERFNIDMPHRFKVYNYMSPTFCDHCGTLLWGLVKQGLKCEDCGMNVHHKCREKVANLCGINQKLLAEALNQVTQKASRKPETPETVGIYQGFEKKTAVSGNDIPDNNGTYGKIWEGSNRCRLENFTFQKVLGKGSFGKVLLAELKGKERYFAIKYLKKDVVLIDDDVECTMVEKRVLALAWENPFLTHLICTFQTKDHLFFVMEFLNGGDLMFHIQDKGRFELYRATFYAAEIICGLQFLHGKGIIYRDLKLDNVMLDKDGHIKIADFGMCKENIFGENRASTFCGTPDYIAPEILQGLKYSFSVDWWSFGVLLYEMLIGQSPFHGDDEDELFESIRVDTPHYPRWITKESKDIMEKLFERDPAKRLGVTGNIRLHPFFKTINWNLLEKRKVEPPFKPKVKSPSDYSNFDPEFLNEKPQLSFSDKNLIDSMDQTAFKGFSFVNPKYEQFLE

rats = test: rat spatial (water) maze learning and memory; type: in vivo
Rat IGF-IR cells = test: overall protein synthesis, [35S]methionine incorporation; settings: single 30-minute exposure to 0.28 nM
Description: [^35S]Methionine (9.1 μCi) was then added to the medium followed by analysis of radiolabel.

presynaptic markers = test: pre- and postsynaptic markers, quantitative confocal immunohistochemistry; type: in vivo, rat; settings: bryostatin alone
Source text: Water maze training increased the numbers of the dendritic spine marker spinophilin (FIG. 29; Panel B), postsynaptic membrane marker neurogranin (FIG. 29; Panels A and D), and presynaptic marker GAP-43 (Panels A and E), but not the axon bouton marker synaptophysin (FIG. 29; Panels A and B), as determined by quantitative confocal immunohistochemistry.

PKC [1] = test: PKC activity in cultured rat hippocampal H19-7/IGF-IR cells; type: cell-based
Description: (§1) Cells were homogenized by sonication (5 sec, 25 W) in 100 μl of 100 mM Tris-HCL pH 7.4 buffer containing 1 mM EGTA, 1 mM PMSF, and 50 mM NaF. Homogenate was transferred to a polyallomer centrifuge tube and was centrifuged at 100,000×g for 10 min at 4°. The supernatant was removed and immediately frozen on dry ice. The particulate fraction was resuspended by sonication in 100 μl of the same buffer and stored at −80°. To measure PKC, 10 μl of cytosol or particulate fraction was incubated for 15 min at 37° in the presence of 10 μM histones, 4.89 mM CaCl2, 1.2 μg/μl phosphatidyl-L-serine, 0.18 μg/μl 1.2-dioctanoyl-sn-glycerol, 10 mM MgCl2, 20 mM HEPES (pH 7.4), 0-8 mM EDTA, 4 mM EGTA, 4% glycerol, 8 μg/ml aprotinin, 8 μg/ml leupeptin, and 2 mM benzamidine. 0.5 μCi [γ^32-P]ATP was added and ^32P-phosphoprotein formation was measured by adsorption onto phosphocellulose as described previously (25). This assay was used with slight adjustments for either Hermissenda nervous system homogenates or cultured mammalian neuron homogenates.
Rat hippocampal H19-7/IGF-IR cells (ATCC) were plated onto poly-L-lysine coated plates and grown at 35° in DMEM/10% FCS for several days until approx. 50% coverage was obtained. The cells were then induced to differentiate into a neuronal phenotype by replacing the medium with 5 ml N2 medium containing 10 ng/ml basic fibroblast growth factor and grown in T-25 flasks at 39° C. (26). […] After a specified interval, the medium was removed and the cells were washed with PBS, removed by gentle scraping, and collected by centrifugation at 1000 rpm for 5 min.
These differentiate to have a neuronal phenotype when induced by basic fibroblast growth factor in N2 medium (26) and express a normal complement of neuronal proteins, including PKC.
Both the initial PKC activation and subsequent downregulation have been previously described and were confirmed by measurement of PKC activity in membrane and cytosol.

PKC [2] = test: PKC activity (histone phosphorylation) in Hermissenda nervous systems; type: in vivo
Description: as §1
Histone phosphorylation (See “Methods”) in isolated circumesophageal nervous systems was then measured in the cytosol fraction. […] (FIG. 12, 13).

[3] = single dose 0.28 nM for 30 minutes

CCC/C=C/C=C/C(=O)O[C@H]1/C(=C/C(=O)OC)C[C@H]2C[C@H]([C@@H](C)O)OC(=O)C[C@H](O)C[C@@H]3C[C@H](OC(C)=O)C(C)(C)[C@](O)(C[C@@H]4C/C(=C/C(=O)OC)C[C@H](/C=C/C(C)(C)[C@]1(O)O2)O4)O3 [bryostatin, bryostatin-1]
activation of PKCα (PKCα): stimulates translocation to the plasma membrane; also recorded: selectively activated
ELAV transport (ELAV): significantly transported to dendrites
CE immunostaining (calexcitin; bryostatin alone, 24 hours after 1 exposure for four hours): not elevated
CE immunostaining (calexcitin; bryostatin alone, 24 hours after 2 exposures on two successive days): greater residual CE immunostaining
CE immunostaining (calexcitin; bryostatin plus 6 TE): comparable to that observed after 9 TE
increase of calexcitin levels (calexcitin; paired training (6PTE), bryostatin 0.25): greater than 4.3 ×
rise in CE (calexcitin) (calexcitin; random training (4RTE), bryostatin 0.25): 2.0
calexcitin level (calexcitin; two exposures on successive days 0.25 ng/ml, 2-paired TEs, vs 9-random TEs): significantly increased
filopodia or thin spines (dendritic spines; all conditions): no changes
number of stubby spines (dendritic spines; bryostatin alone (without training)): augmented
total numbers of filopodia and (all shape) spines (dendritic spines; only bryostatin): similarly increased
water-maze-induced increase in number of mushroom spines (dendritic spines; retention day 2, training plus bryostatin): enhanced
increase in total numbers of filopodia and spines (dendritic spines; water maze rats also treated with bryostatin): enhanced
activation of PKCδ (PKCδ): but not PKCδ
latency to reach the platform (rats; 10 μg/kg i.p. 20 min before training on day 1, 3, 5, vs. controls): greatly reduced
number of target crossings (rats; retention Day 1): similarly enhanced
time to reach the target quadrant (rats; retention day 1, 24 hours after all training): reduced
increase of overall protein synthesis (Rat IGF-IR cells; by 79 hours): 60%
increase of overall protein synthesis (Rat IGF-IR cells; within 24 h): 20%
number of presynaptic markers (presynaptic markers): increased
PKC activity, cytoplasmic fraction (PKC [1]; exposed twice within a 2-hour period): significant reduction
membrane-bound PKC downregulation (PKC [1]; second 30-minute exposure after a 2- to 4-hour delay): eliminated the significant downregulation
PKC activity, cytoplasmic fraction (PKC [1]; second exposure 4 hours after the first): increased above baseline
membrane-bound PKC after the brief translocation (PKC [1]; [3]): prolonged downregulation
translocation of PKC from the cytosol to the particulate fraction (PKC [1]; [3]): approx 60%
PKC activity, cytoplasmic fraction (PKC [1]; within the first 4 hours after exposure): no significant alteration
PKC activity, cytosol fraction (PKC [2]; 0.28 nM, 4 hour exposures, 10 minutes and 24 hours after the second of two exposures): significantly increased over baseline levels
PKC activity, membrane fraction (PKC [2]; 24 hours after the second of two exposures): significantly increased over baseline
